These results are taken from patent US7182950B2, “Nano-sized self-assembled liquid dilutable vehicles” (Nutralease Ltd., priority 2002, dated 2007).

Series [1] is classed as physicochemical. The text has this: The invention will now be described with reference to some non-limiting specific embodiments. The invention will first be illustrated in reference to the attached drawings to be followed by a more detailed description below. Turning to FIG. 1, there are shown two different phase diagrams (1A and 1B) of ternary systems comprising oil/water/surfactant according to the prior art. Such a ternary system forms microemulsions. As a function of the relative amounts of each of the three components one may achieve a two-phase or a mono-phase liquid concentrate comprising of the microemulsion where the boundaries of the stable phases depend on the relative concentration of each component. […] A two-phase region at equilibrium, at 35, prevails at all other concentrations of the ternary system. […] A one phase stable isotropic region exists at 65. Turning to FIG. 2, a general ternary phase diagram 80 describing the nano-sized self-assembled structured concentrates of the present invention, A rather small two-phase concentrate region 90 and a large stable one-phase at 100 region are present. A micellar concentrate of the nano-sized self-assembled structures exists at 110, i.e. there is no aqueous phase. Adding a small amount of aqueous phase results in an oil continuous phase, which is actually water in oil (W/O) region at 120A, 120B and 120C along the tree dilution lines. Addition of an increasing amount of aqueous solution results in a bi-continuous region at 130A, 130B and 130C along the three dilution lines. At the point where the amount of aqueous solution is greater than that of the oil phase there exists an aqueous continuous phase, which is actually an oil in water (O/W) region generally at 140A, 140B and 140C along the three dilution lines. Direct micelles exist only at the extreme at 150. It should be noted that along each concentration line as the concentration of the surfactant increases, the oil continuous phase may decrease is size while the bicontinuous and water continuous phases may increase in size. Turning to FIG. 3, a ternary phase diagram 170 describing another nanosized-structured concentrate of the present invention is shown. The oil phase, which is the desired solvent for achieving a single-phase system, is α-tocopherol acetate. The aqueous system comprises of water and a co-solvent—propylene glycol. As shown, a major portion of the four-component system is in one stable region 180, while only a minor portion 190 is a two-phase system. Phase diagrams, solubilization factors and efficiency of solubilization for lycopene, phytosterol and lutein in ternary systems according to lo the present invention are given in FIGS. 4–6. […] It should be noted that the ratio between each of the components of the oil phase to the surfactant is 1:3. […] As shown, upon further dilution with water, tie solubilization of lycopene drops over the dilution factor. In case the system is diluted from 67% water to 80% water, the dilution factor (from inversion) is 80/67=1.19. The solubilization on the other hand decreases by a factor of 450/312.5=1.44. This indicates structural change in the nano-sized self-assembled concentrates. Turning to FIG. 4C, the efficiency of the solubilization in the described system is represented (α). The efficiency factor, α, is defined as lycopene/oil(wt/wt)X 100. As shown, the maximum solubilization on an oil base is 0.8 wt %. […] Tuming to FIG. 4D, there is shown the solubilization capacity of the lycopene as a function of the nature of the surfactant system. As shown, for the case where the surfactant is Tween 60, the efficiency factor (solubilization based on the oil phase) is 0.8 wt %. However, this value is increased to 1.05, 1.1, 1.1 and 1.16 (wt %) for the cases where the surfactant is ethoxylated monoglycerides (EM), triglycerol monooleate (TM), sugar ester (SE), and a mixture of SE+EM, respectively. It should be noted that such efficiency factors are equivalent to a solubilization factor of up to 25 fold. […]

Series [2] in a line: Solubility of lycopene in oil (oil dissolution capacity). In kind it is physicochemical. From the text:
The invention will now be described with reference to some non-limiting specific embodiments. The invention will first be illustrated in reference to the attached drawings to be followed by a more detailed description below. Turning to FIG. 1, there are shown two different phase diagrams (1A and 1B) of ternary systems comprising oil/water/surfactant according to the prior art. Such a ternary system forms microemulsions. As a function of the relative amounts of each of the three components one may achieve a two-phase or a mono-phase liquid concentrate comprising of the microemulsion where the boundaries of the stable phases depend on the relative concentration of each component. […] A two-phase region at equilibrium, at 35, prevails at all other concentrations of the ternary system. […] A one phase stable isotropic region exists at 65. Turning to FIG. 2, a general ternary phase diagram 80 describing the nano-sized self-assembled structured concentrates of the present invention, A rather small two-phase concentrate region 90 and a large stable one-phase at 100 region are present. A micellar concentrate of the nano-sized self-assembled structures exists at 110, i.e. there is no aqueous phase. Adding a small amount of aqueous phase results in an oil continuous phase, which is actually water in oil (W/O) region at 120A, 120B and 120C along the tree dilution lines. […]

`CC1=C[C@H](O)CC(C)(C)[C@H]1/C=C/C(C)=C/C=C/C(C)=C/C=C/C=C(C)/C=C/C=C(C)/C=C/C1=C(C)C[C@@H](O)CC1(C)C` [free lutein]: the “Concentration (%) of free lutein” value in series [1] was 0.006%.
Turning to `CC1=C[C@H](O)CC(C)(C)[C@H]1/C=C/C(C)=C/C=C/C(C)=C/C=C/C=C(C)/C=C/C=C(C)/C=C/C1=C(C)C[C@@H](O)CC1(C)C` [lutein], in series [1], the “Aqueous solution concentration at which maximum solubilization occurs (bi continuous region)” value lay in the range of 40 to 60%, the “Increase of solubilization capacity over aqueous or oil phase alone or with surfactant” value (“Increase of solubilization capacity” for short) is 7-20 fold and the “Solubilization in the oil in water (O/W) region” value was “limited solubilization”.
lutein ester: the “Concentration (%) of lutein ester” value in series [1] amounted to 0.047%.
On to `CC(C)=CCC/C(C)=C/C=C/C(C)=C/C=C/C(C)=C/C=C/C=C(C)/C=C/C=C(C)/C=C/C=C(\C)CCC=C(C)C` [lycopene], for which, in series [2], the “Solubility of lycopene in oil” value is “ca. 0.045 wt %”. Moreover, in series [1], the “Concentration (%) of lycopene” value is 0.02%; the “Efficiency factor α, lycopene/oil (wt/wt) x 100, maximum solubilization on an oil base” value came out at 0.8 wt %; the “Factor of decrease of solubilization on dilution” value was found to be 1.44; the “Increase of solubilization capacity” value is given as 7-20 fold. Besides, in series [1], the “Maximum solubility (solubility capacity) in 1 Kg of nano-sized self-assembled structured concentrate” value came out at 450 mg, the Maximum solubilization is reported as 0.45 % (wt), the “Solubility capacity in 1 Kg of concentrate after dilution” value amounted to 312.5 mg and the Solubilization factor entry is given as “up to 25 fold”. In addition, the “Solubilization relative to the oil dissolution capacity” value in series [1] was “up to 17.7 fold”.
As to phytosterol, in series [1], the “Concentration (%) of phytosterol” value is 1.0%; the “Efficiency factor α, phytosterol/oil (wt/wt) x 100, maximum solubilization on an oil base” value is listed as 16.7 wt %; the “Increase of solubilization capacity” value is recorded as 7-20 fold; the Maximum solubilization is listed as 1.65 % (wt). Besides, in series [1], the “Maximum solubilization in 1 Kg of nano-sized self-assembled structured concentrate” value stood at 165 mg; the “Solubilization decrease factor on dilution” value is given as 3.6; the Solubilization factors is given as 6, 7; the “Solubilization in 1 Kg of concentrate after dilution” value was determined as 45 mg.
